pKi: −log10 of the molar value.
Target: T1, human intermediate-conductance Ca2+-activated K+ channels (hIK channels) (Homo sapiens, UniProt O15554)
T1 construct: expressed in transfected cells
Assay: Block of IK channels, whole-cell patch-clamp
Type: cell-based
Conditions: hIK cloned from human placenta, stably expressed in HEK293 cells; Ki = koff/kon from kinetics of the block
Procedure: In this example the ability of the compounds of the invention to inhibit human intermediate-conductance Ca^2+-activated K^+ channels (hIK channels) is examined.
hIK channels have been cloned from human placenta and stably expressed in HEK293 cells. The ionic current through the channels is recorded in the whole-cell mode of the patch-clamp technique.
A Ki value is calculated from the kinetics of the block.
The inhibition of the current is assumed to occur by a simple drug (D)−receptor (R) interaction after the following scheme: [drawing 3]
This is a simple bimolecular reaction, which integrated under non-equalibrium conditions are described by the equation: It=I0*(1−(C/C+(koff/kon)))*(1−exp(−(C* kon+koff)*t))) • wherein, • It=current at time t in nA • koff=off-rate in s^−1 • I0=basal current in nA • kon=on-rate in M^−1s^−1 • C=drug concentration in μM
By using the equation above, a fit to the time-course of the decrease in current yields the values koff and kon. Ki equals the ratio koff/kon, and Ki is the test value to be reported. At t=∞ (equalibrium) the equation simplifies to the Michaelis-Menten equation with Ki=IC50.

SMILES | pKi
N#CC(CC(=O)O)(c1ccc(F)cc1)c1ccc(F)cc1 [Compound 2, 3-Cyano-3,3-bis-(4-fluoro-phenyl)-propionic acid] | 5.66
CCOC(=O)CCC(C#N)(c1ccc(F)cc1)c1ccc(F)cc1 [Compound 4, Ethyl 4-cyano-4,4-bis-(4-fluoro-phenyl) butyrate] | 5.85
NC(CSC(c1ccc(F)cc1)(c1ccc(F)cc1)c1ccccc1F)=NO [Compound 6, 2-[(2-Fluoro-phenyl)-bis-(4-fluoro-phenyl)-methanesulfanyl]-N-hydroxy acetamidine] | 6.28
N#CC(Cc1ccccn1)(c1ccc(F)cc1)c1ccc([N+](=O)[O-])c(C(F)(F)F)c1 (stereo not shown) [Compound 8, 2-(4Fluoro-phenyl)-2-(4-nitro-3-trifluoromethyl-phenyl)-3-pyridin-2-yl-propionitrile] | 7.19
